Data on three molecules can be found in US20250163113A1, “PEPTIDES TARGETING THE INTERACTION BETWEEN KINDLIN-1 AND Beta-INTEGRIN” (INSTITUT CURIE, priority 2022, published 2025).

Residues, ends and D or L forms follow the SMILES beside them.

One data set deals with T1, β1-integrin (Homo sapiens, UniProt P05556).
T1 construct: endogenous in cells; host or cells: MDA MB 231 human breast cancer cells
Briefly: Flow cytometry of cell-surface active β1-integrin (9EG7) in MDA MB 231 cells. The format is cell-based. Particulars: MDA MB 231, 2 mM MnCl2, positive control. The method, then: FIG. 3: Kindpep1 reduces β1-integrin activation. Fluorescence activated sorter (FACS) histograms (top) and the corresponding bar graphs showing the mean fluorescence intensity (MFI) of cell-surface active β-1 integrin (9EG7 staining) of MDA MB 231 cells untreated, treated with Kindpep1 (200 μM) for 15 h or treated with 2 mM MnCl2.
To quantify the expression levels of integrins, cultured cells were trypsinized, washed and incubated for 1 h at 4° C. in phosphate-buffered saline (PBS) containing 150 mM NaCl and 1% BSA with the rat anti-1 integrin (9EG7 clone, 1:300) primary antibodies obtained from BD Biosciences. Cells were then washed 3 times, incubated with Alexa Fluor 488-conjugated secondary antibody for 1 h at 4° C. and washed. 1×10^4 cells were analyzed on a FACS Calibur. The mean fluorescence intensity of each sample was obtained using the Flowing software 2.
The effect of Kindpep1 on β1-integrin activation was confirmed by performing the same immunofluorescence assays using the human breast cancer cell line MDA MB 231, characterized by a high Kindlin-1 protein endogeneous expression.

Data set [1] has as its system H358 lung cancer cell line. The experiment in a line: NCI-H358 KRAS-dependent lung cancer xenograft mouse model. The data set is classed as in vivo. Particulars: 10 mg/Kg intraperitoneal 5 days per week. The method, then: FIG. 9: Kindpep decreases tumor growth of KRAS-dependent tumors in vivo. A. Diagram presenting the course of the experiment. B. Scatter plot showing the tumor volume of the different mice of the control and Kindpep1 treated groups, at the end of the treatment. Mean±SD are represented (*p<0.05). C. Graph monitoring tumor growth of control and Kindpep1 treated mice during the course of the experiment. Mean±SD are represented.
NCI-H358 model: 1×10^5 cells were injected subcutaneously in the flanks of 6-week old female BALB/c mice (n=10 mice for each control and treated groups). Tumor volume was measured with caliper 3 times a week. […] Tumor volumes were calculated as: Volume (cm^3)=a×b^2/2 (a and b are the two registered perpendicular diameters a>b). Tumor growth inhibition (TGI) was calculated using the following formula [1−(Vft−V0t)/(Vfc−V0c))]*100 where Vft=final volume of the treated group (at the end of the treatment); Vot=initial volume of the treatment group (at the beginning of the treatment); Vfc=final volume of the control group (at the end of the treatment); V0c=initial volume of the control group (at the beginning of the treatment).
Finally, inventors wanted to validate in vivo the impact of Kindpep1 treatment in KRAS-dependent tumors. […] The treatment was administered by intraperitoneal injections 5 days per week and tumor growth was monitored for 50 days (FIG. 9A).

Data set [2] deals with triple negative breast cancer PDX. The experiment in a line: Triple negative breast cancer patient derived xenograft (PDX) model. The data set is classed as in vivo. Conditions: nude mice, 10 mg/Kg intraperitoneal 5 days per week. The protocol:
FIG. 6: Kindpep1 reduces the metastatic spread in a breast cancer PDX model. A. Diagram presenting the course of the experiment. B Quantification of the number of metastatic nodules found in the lungs of control and Kindpep1 treated mice. Mean±SEM are represented. Statistical analyses were performed by a t-test.
The triple negative breast cancer PDX model expressing high levels of Kindlin-1 was obtained from the Laboratoire d'Investigation Pré-clinique. Informed consent was obtained from patient before xenograft establishment. When tumor reached a volume of 60 to 200 mm^3, mice were randomly assigned to the control or treated group. Kindpep1 was administrated by intraperitoneal injection at a dose of 10 mg/kg 5 times a week. The vehicle alone (Nacl 0.9%) was administered to the control group following the same treatment regimen as with the drug. The control and treated group consisted of 10 mice each.
Then, a triple negative breast cancer patient derived xenograft (PDX) model previously characterized as highly metastatic and presenting high expression levels of Kindlin-1 was chosen. Tumor fragments were grafted into the interscapular fat pad of female nude immunodeficient mice and 5 days later the treatment started. […] The treatment was administered by intraperitoneal injections 5 days per week and tumor growth was monitored until reaching the ethical size, i.e. 2 cm^3 (FIG. 6A). […]

In the next data set the test system is 4T1-luc cells. Briefly: 4T1-luc metastatic breast cancer model in BALB/c mice. Particulars: BALB/c mice, 2, 10 or 50 mg/kg, 7 day per week during 10 days. The format is in vivo. An excerpt:
FIG. 5: Kindpep1 reduces tumor growth and metastatic spread in breast cancer in vivo. A. Diagram presenting the course of the experiment. B. Corresponding relative tumor growth graph to bioluminescence images of tumors at day 25. C. Corresponding graph showing the quantification of the total area of metastatic nodules found in the different groups of mice to bioluminescence images of metastasis at day 25. Area ph/s/group stands for area photon/second/group.
4T1-luc model: 1×10^5 4T1-luc cells were inoculated subcutaneously in the flanks of 6-week old female BALB/c mice (n=28). Eleven days after tumor cell inoculation, […] mice were randomly assigned to receive intraperitoneal injection of Kindpep1 (2, 10 or 50 mg/kg) or placebo (PBS). The tumor growth and the progression of metastatic lesions were also weekly monitored by bioluminescence imaging of animals using the Nightowl imaging system. On day 25 after tumor cell inoculation, anesthetized mice were sacrificed by cervical dislocation.
These observations prompted the investigation of the effects of Kindpep1 in vivo. […] Thus, the effects of Kindpep1 on tumor dissemination in a metastatic breast cancer model was studied. 4T1 cells were used because they have a high Kindlin-1 expression and have been also described to form lung metastasis in vivo. […]

Data set [3] deals with β1-integrin of 168FARN mouse breast cancer cells (endogenous) (mouse) (UniProt P09055). Briefly: cell-based or functional assay.
Chain of β1-integrin of 168FARN mouse breast cancer cells (endogenous) (mouse) (P09055 21-798): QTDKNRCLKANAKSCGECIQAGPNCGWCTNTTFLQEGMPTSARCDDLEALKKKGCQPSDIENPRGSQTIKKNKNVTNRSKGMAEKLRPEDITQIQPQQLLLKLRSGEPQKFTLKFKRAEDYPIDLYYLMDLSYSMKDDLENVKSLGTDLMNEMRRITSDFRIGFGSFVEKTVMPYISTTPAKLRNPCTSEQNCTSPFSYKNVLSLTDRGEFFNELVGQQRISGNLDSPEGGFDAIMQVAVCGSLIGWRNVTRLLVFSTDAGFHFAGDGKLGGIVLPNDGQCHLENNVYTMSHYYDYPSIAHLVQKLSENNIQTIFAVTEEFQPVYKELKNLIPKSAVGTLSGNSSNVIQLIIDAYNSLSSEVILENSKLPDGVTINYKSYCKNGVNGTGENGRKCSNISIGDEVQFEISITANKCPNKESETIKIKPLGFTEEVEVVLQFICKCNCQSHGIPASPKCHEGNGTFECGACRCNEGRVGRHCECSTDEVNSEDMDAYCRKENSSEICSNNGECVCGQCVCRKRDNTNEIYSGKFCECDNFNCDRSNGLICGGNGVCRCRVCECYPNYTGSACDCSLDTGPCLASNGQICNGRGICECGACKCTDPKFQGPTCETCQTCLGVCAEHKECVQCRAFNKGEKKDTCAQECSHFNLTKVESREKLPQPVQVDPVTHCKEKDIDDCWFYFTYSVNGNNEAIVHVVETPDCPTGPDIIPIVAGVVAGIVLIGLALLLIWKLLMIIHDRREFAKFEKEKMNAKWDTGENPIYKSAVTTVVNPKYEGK

T1 sequence (P05556 21-798): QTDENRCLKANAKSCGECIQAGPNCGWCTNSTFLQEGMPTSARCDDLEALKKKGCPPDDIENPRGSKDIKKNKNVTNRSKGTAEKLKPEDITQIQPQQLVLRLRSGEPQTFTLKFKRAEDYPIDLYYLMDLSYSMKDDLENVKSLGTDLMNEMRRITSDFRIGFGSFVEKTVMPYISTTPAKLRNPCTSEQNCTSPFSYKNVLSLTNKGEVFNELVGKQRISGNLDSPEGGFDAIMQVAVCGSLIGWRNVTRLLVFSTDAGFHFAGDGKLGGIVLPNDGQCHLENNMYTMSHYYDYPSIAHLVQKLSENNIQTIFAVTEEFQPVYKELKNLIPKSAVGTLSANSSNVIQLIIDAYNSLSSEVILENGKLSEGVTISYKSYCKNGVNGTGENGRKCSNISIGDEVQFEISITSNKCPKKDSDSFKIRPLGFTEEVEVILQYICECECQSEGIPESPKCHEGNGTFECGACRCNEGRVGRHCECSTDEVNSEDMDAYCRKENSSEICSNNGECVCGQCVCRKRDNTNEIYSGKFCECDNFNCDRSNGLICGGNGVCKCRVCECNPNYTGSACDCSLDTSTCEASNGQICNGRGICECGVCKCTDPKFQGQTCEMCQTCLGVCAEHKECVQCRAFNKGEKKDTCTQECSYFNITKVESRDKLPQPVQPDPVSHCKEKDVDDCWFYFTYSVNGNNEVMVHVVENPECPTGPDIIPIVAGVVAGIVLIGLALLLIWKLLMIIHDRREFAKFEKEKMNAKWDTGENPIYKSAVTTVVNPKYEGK

Turning to `[Cl][Mn][Cl]` [MnCl2], the “levels of active β1-integrin on the cell surface (flow cytometry, 9EG7)” value at β1-integrin is “increase levels of active β1-integrin”.

As for `CC[C@H](C)[C@H](NC(=O)[C@H](CCCCN)NC(=O)[C@H](CCCCN)NC(=O)[C@H](CCCCN)NC(=O)[C@H](CCCCN)NC(=O)[C@@H](N)C(C)C)C(=O)N[C@@H](CCCCN)C(=O)N[C@@H](C)C(=O)N[C@@H](CCC(=O)O)C(=O)N[C@H](C(=O)N[C@@H](CCCCN)C(=O)N[C@H](C(=O)N[C@@H](CO)C(=O)N[C@@H](Cc1ccccc1)C(=O)N[C@@H](CC(C)C)C(=O)N[C@@H](CCCNC(=N)N)C(=O)N[C@@H](CCSC)C(=O)N[C@@H](CCCCN)C(=O)N[C@@H](CC(N)=O)C(=O)N[C@@H](CCCNC(=N)N)C(=O)N[C@@H](CC(N)=O)C(=O)N[C@@H](CO)C(=O)N[C@@H](C)C(=O)N[C@@H](CO)C(=O)N[C@@H](CCC(N)=O)C(=O)N[C@H](C(=O)N[C@@H](C)C(=O)N[C@@H](CO)C(=O)N[C@@H](CO)C(=O)N[C@@H](CC(C)C)C(=O)O)C(C)C)[C@@H](C)CC)[C@@H](C)CC` [Kindpep1] (H-VKKKKIKAEIKISFLRMKNRNSASQVASSL-OH), the “toxicities in nude mice” value in data set [1] is “without apparent toxicities”. Moreover, in data set [2], the “death during the treatment” value is reported as “no death was observed” and the side effects entry is recorded as “no side effects were detected”. In the data set on 4T1-luc cells, the “death during the treatment” value is given as “no death was observed” and the side effects entry is on record as “no any side effects was detected”.

Take “wild-type Kindlin-1 expressed in 168FARN cells (from UniProt Q9BQL6 1-677)”: in data set [3], the velocity of cell migration of 168FARN cells in 3D collagen matrix (time-lapse tracking) worked out at 3.8 fold.
